Measured values as given in publication PMC5607274, “An iterative compound screening contest method for identifying target protein inhibitors using the tyrosine-protein kinase Yes” (Scientific Reports, 2017).

Target: T1, human recombinant Yes [a.a. 2–543 (end)] (Homo sapiens, UniProt P07947)
T1 construct: human recombinant Yes [a.a; 2–543 (end)]; purchased BPS Bioscience 40488
Assay: ADP-Glo kinase assay, inhibition rates of Yes phosphorylation activity (first and second screening)
Type: biochemical
Settings: first screening; mean of n = 4 wells; 10 μmol L−1 compound
Outline: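 Hits from a first pass were rescreened after re-dissolution from fresh powder. The first pass reported the mean inhibition rate of quadruplicate wells per compound. Activity was that of recombinant human Yes [a.a. 2–543] kinase, read out with the ADP-Glo ADP-detection method.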

T1 sequence (P07947 2-543): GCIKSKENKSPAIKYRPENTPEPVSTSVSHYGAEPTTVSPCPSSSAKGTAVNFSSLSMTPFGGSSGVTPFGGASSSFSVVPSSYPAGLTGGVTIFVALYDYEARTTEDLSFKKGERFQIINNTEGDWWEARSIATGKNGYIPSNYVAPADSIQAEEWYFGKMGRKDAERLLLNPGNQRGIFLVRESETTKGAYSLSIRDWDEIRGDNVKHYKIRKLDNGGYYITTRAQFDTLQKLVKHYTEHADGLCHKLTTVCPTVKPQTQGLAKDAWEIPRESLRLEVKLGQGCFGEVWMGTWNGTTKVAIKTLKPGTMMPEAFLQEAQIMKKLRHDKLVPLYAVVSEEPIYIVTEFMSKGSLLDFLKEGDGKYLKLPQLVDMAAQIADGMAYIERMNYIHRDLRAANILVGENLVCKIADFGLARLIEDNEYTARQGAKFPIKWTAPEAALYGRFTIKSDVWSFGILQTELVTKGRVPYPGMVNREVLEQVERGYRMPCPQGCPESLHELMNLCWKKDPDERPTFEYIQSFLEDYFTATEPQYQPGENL

| First screening IR (inhibition rate) [%] | SMILES |
| --- | --- |
| 45 | Cc1sc2nc(CN3CCCC3)nc(N(C)CC(=O)Nc3ccc(N4CCOCC4)cc3)c2c1C [Compound Z31148700] |
| -12 | Oc1ccc(F)cc1C1=NNC(c2cc(Br)cc3c2OCOC3)C1 (stereo not shown) [Compound Z57604399] |
| -3 | O=C(Nc1cc(-c2cccc([N+](=O)[O-])c2)sc1C(=O)O)c1cc2c(s1)CCC2 [Compound Z204341220] |
| 39 | O=C(CN1CCN(c2cc(C(=O)N3CCOCC3)c3ccccc3n2)CC1)Nc1ccccc1Cl [Compound Z165229378] |
| 6 | O=C(N/N=C/C=C/c1ccco1)c1ccc(-c2ccc(F)cc2)s1 [Compound Z839335172] |
| -3 | COc1ccc(-c2nnc(SCC(=O)N3c4ccccc4OCC3c3ccccc3)n2C)cc1 (stereo not shown) [Compound Z65980497] |
| 25 | O=C(NCCNc1ncc(C(F)(F)F)cc1Cl)c1ccc2nc[nH]c2c1 [Compound Z101998542] |
| 3 | Cc1cccc(NC2CCN(C(=O)c3c[nH]c4cccc(F)c34)CC2)n1 [Compound Z1538193381] |
| 7 | FC(F)(F)c1ccnc(Nc2ccc(N3CCOCC3)cc2)n1 [Compound Z285679120] |
| 4 | Cc1ccc(Cn2c(=O)c3ccccc3n3c(CCC(=O)NCCN(Cc4ccco4)C(C)C)nnc23)cc1 [Compound Z1169067782] |
| -3 | O=C(Cc1ccc(OC(F)F)cc1)N1CCC(c2nc(-c3ccccc3)n[nH]2)CC1 [Compound Z991836758] |
| -5 | O=C(Nc1n[nH]c(-c2ccc(F)cc2)n1)c1csc2c1CCCC2 [Compound Z119708890] |
| -8 | Cn1ccc2c(NC(=O)NCc3ccnc(N4CCCC4)c3)cccc21 [Compound Z1040576806] |
| 18 | O=C(O)c1cccc(N/N=C/c2ccc(N(c3ccccc3)c3ccccc3)cc2)c1 [Compound Z49584790] |
| 0 | C/C=C/C=C/C(=O)NCc1cccc(C(=O)NCc2ccco2)c1 [Compound Z737550454] |
| 3 | Cc1c(-c2ccc(O)cc2)nc2ccc(Cl)cc2c1-c1ccccc1F.Cl [Compound Z48955845] |
| 6 | CC(C)c1noc(C(C)S(=O)(=O)C/C=C/c2ccccc2)n1 (stereo not shown) [Compound Z436400008] |
| 22 | Cc1ccc(-n2c(SCC(=O)c3cc(C)n(CC4CCCO4)c3C)nnc2N2CCOCC2)cc1 (stereo not shown) [Compound Z98369603] |
| -18 | O=C(Nc1cc(N2CCCS2(=O)=O)ccc1O)c1cccc(C(F)(F)F)c1 [Compound Z573928840] |
| 13 | O=C(c1cccn1Cc1ccncc1)N1CCOC(c2ccc(F)cc2)C1 (stereo not shown) [Compound Z998371530] |
| 2 | NC(=O)N1CCC(C(=O)N2CCCC2CC2CC3CCC2C3)CC1 (stereo not shown) [Compound Z1038829842] |
| -9 | CCCCS(=O)(=O)C1CCS(=O)(=O)C1 (stereo not shown) [Compound Z56757812] |
| 12 | CC(C)(C)Oc1cccc(CN2CCC(c3c[nH]c4ncccc34)CC2)n1 [Compound Z1564730073] |
| -14 | Cc1cc(=O)[nH]c(SCC(=O)c2ccc3c(c2)NC(=O)CO3)n1 [Compound Z56863397] |

| First screening IR (inhibition rate) [%] | SMILES |
| --- | --- |
| 8 | O=C(Nc1nc2ccccc2[nH]1)c1ccc(N2CCCC2=O)cc1 [Compound Z27664887] |
| 2 | Cc1ccc(C(=O)CC2(O)C(=O)Nc3ccc(Cl)cc32)cc1 (stereo not shown) [Compound Z57172226] |
| 0 | Cc1noc(C)c1COC(=O)c1c[nH]cc1-c1ccc(Cl)s1 [Compound Z796939908] |
| 17 | Cc1nccn1-c1cncc(NCCOCCS(C)(=O)=O)n1 [Compound Z1513517715] |
| 15 | Cc1cc(-c2cc(C(=O)Nc3ccc(N4CCN(C)CC4)nc3)c3cnn(C(C)C)c3n2)c(C)o1 [Compound Z228220646] |
| -3 | CS(=O)(=O)c1ccccc1S(=O)(=O)N1CCCC1 [Compound Z285664942] |
| -9 | CCOCCCn1c(NC(=O)c2ccc3c(c2)CCN3C(C)=O)nc2ccccc21 [Compound Z1090594860] |
| 11 | C(=C\c1nc2cc(-c3ccccc3)ccc2o1)/c1cccnc1 [Compound Z46080472] |
| -20 | CC1(NC(=O)OC(C)(C)C)CCN(C(=O)c2cc3c(cc2O)CCCC3)CC1 [Compound Z1769013356] |
| 45 | Clc1ccccc1Cn1ncc2c(N3CCCC3)ncnc21 [Compound Z1172235419] |
| 0 | COc1cc(Br)c(S(=O)(=O)N(C)C(=O)C2CC2)cc1OC [Compound Z643690740] |
| 26 | COC(=O)c1cc(-c2ccc(C)cc2)nc2c1cnn2C(C)C [Compound Z90671680] |
| 12 | Cc1ccccc1Nc1nc(N)nc(CSc2ccc(C(F)(F)F)cn2)n1 [Compound Z45354574] |
| 11 | c1ccc(-c2cn3nc(NCCCN4CCOCC4)sc3n2)cc1 [Compound Z300797868] |
| -22 | COc1ccc(-n2c(-c3ccccc3)cn3c4c(=O)n(CCN5CCCCC5)c(=O)n(C)c4nc23)cc1 [Compound Z241121498] |
| -7 | CCC(C)CS(=O)(=O)N(C)CC (stereo not shown) [Compound Z1193464552] |
| -5 | CCN1CCN(c2cc(CNC(=O)c3cn(-c4ccccc4)nc3-c3ccc(OC)cc3)ccn2)CC1 [Compound Z955363064] |
| 15 | COc1ccccc1C(=O)N=Nc1c(O)[nH]c2ccc(C)cc12 [Compound Z381428874] |
| 23 | COc1ccc(C)cc1N1CC(C(=O)Nc2ccc3c(ccn3CCN3CCOCC3)c2)CC1=O (stereo not shown) [Compound Z961849222] |
| 4 | Cc1ccc(-c2c3c(nc4sc5c(c24)CCC5)CCC(C(C)(C)C)C3)cc1.Cl (stereo not shown) [Compound Z48952614] |
| -2 | Cl.O=C(NCCC1CCCNC1)c1c(F)cccc1Br (stereo not shown) [Compound Z1457134316] |
| 9 | CCOc1cc(/C=N/Nc2ccnc3cc(Cl)ccc23)ccc1O [Compound Z49625899] |
| 3 | NS(=O)(=O)c1cccc(S(=O)(=O)Cl)c1 [Compound Z237480338] |
| 6 | COCCOC(=O)c1cc(-c2ccc(C)cc2)nc2c1cnn2C(C)C [Compound Z226924464] |

| First screening IR (inhibition rate) [%] | SMILES |
| --- | --- |
| -9 | CCN(CC)c1ccc(C(=O)NC(=S)Nc2nc(-c3cccs3)cs2)cc1 [Compound Z56787522] |
| 0 | CC(C(=O)N1CCN(S(=O)(=O)c2ccccc2)CC1)N1CCC(C(N)=O)CC1 (stereo not shown) [Compound Z123938232] |
| 15 | CCN(Cc1ccc2c(c1)OCCO2)C(=O)CSc1nnc(C(C)N(C)C)n1-c1ccc(F)cc1 (stereo not shown) [Compound Z97565837] |
| 1 | CC(SCc1nc(N)nc(N(C)C)n1)C(=O)NC1CCCCCC1 (stereo not shown) [Compound Z197454502] |
| -6 | COc1cccc(-c2cc(-c3ccccc3)c3ccccc3n2)c1.Cl [Compound Z48951025] |
| 0 | O=C(NCCN1CCc2ccccc2C1)Nc1ccncc1F [Compound Z1677754180] |
| 27 | CCN(CCNC(=O)CCN1CCN(c2ccccn2)CC1)c1ccccc1C [Compound Z1255568722] |
| -22 | O=c1c([N+](=O)[O-])c(NCCCn2ccnc2)c2ccccc2n1-c1ccccc1 [Compound Z339024634] |
| -24 | Cc1ccc(-c2nn3c(=O)c4c5c(sc4nc3c3ccccc23)CC(C(C)(C)C)CC5)cc1 (stereo not shown) [Compound Z56929220] |
| -3 | O=C(CCc1ccc(S(=O)(=O)N2CCCC2)cc1)NCC(c1ccccc1Cl)N1CCCC1 (stereo not shown) [Compound Z166811416] |
| 9 | CC(C)(C)C(=O)NCc1ccc(C(=O)COC(=O)c2cc3c(s2)CCC3)s1 [Compound Z73973253] |
| -11 | CC(=O)N1CCc2cc(NC(=O)c3ccccc3SCc3cn4ccccc4n3)ccc21 [Compound Z285525778] |
| 8 | Cc1ccc(C)c(N2C(=O)c3ccc(C(=O)Nc4ccc(N5CCN(C)CC5)cc4C)cc3C2=O)c1 [Compound Z27972425] |
| 2 | CCCCn1c(CN2CCN(c3ccccn3)CC2)nc2c1c(=O)[nH]c(=O)n2Cc1ccccc1 [Compound Z104935524] |
| 37 | CCOC(=O)c1sc2nc(CN3CCOCC3)nc(Nc3ccc(N4CCCCC4)nc3)c2c1C [Compound Z238683848] |
| -1 | O=C(Nc1cccnc1)C1CCN(C(=O)c2ccc(C(F)(F)F)cc2)CC1 [Compound Z228734424] |
| -4 | CCn1ncc2c(C(=O)NCC(C)(O)C(F)(F)F)cc(-c3cccs3)nc21 (stereo not shown) [Compound Z1535762010] |
| 2 | CS(=O)(=O)N(C(=O)c1ccc(OC(F)(F)F)cc1)C1CCC(O)CC1 (stereo not shown) [Compound Z1328888966] |
| 6 | CC(Nc1ccc(Oc2cccc3cccnc23)cc1)C(N)=O (stereo not shown) [Compound Z1651676792] |
| 20 | O=C(Nc1nc(-c2ccccc2)cs1)c1cc2ccccc2s1 [Compound Z87524039] |
| -5 | O=C(CCc1cnn(-c2ccccc2)c1)Nc1nc2c(s1)CCCC2 [Compound Z131246512] |
| -2 | CN(C1CCS(=O)(=O)C1)S(=O)(=O)c1ccc(Cl)c(Cl)c1 (stereo not shown) [Compound Z71311982] |
